Results as given in patent publication US10131652B2, “Pyrimidinyloxy benzene derivatives as herbicides” (E. I. DU PONT DE NEMOURS AND COMPANY, priority 2014, dated 2018).

Tests used:
Assay type in all cases: in vivo
[1] = system: morningglory (Ipomoea coccinea); assay: Test D pre-/postemergence plant response
Method in brief: (§1)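 Visual rating, 0–100 scale (0 = no effect, 100 = complete control), versus untreated controls 13 to 15 days after treatment in greenhouse. Preemergence: seeds in loam/sand soil. Postemergence: 2 to 18 cm plants, 1- to 4-leaf stage, peat-based medium. Compounds formulated in non-phytotoxic solvent plus surfactant.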

[2] = system: ragweed (common ragweed, Ambrosia elatior); assay: Test D pre-/postemergence plant response
Method in brief: as §1

[3] = system: johnsongrass (Sorghum halepense); assay: Test D pre-/postemergence plant response
Method in brief: as §1

soybean (Glycine max) = assay: Test D pre-/postemergence plant response
Method in brief: as §1

[4] = system: yellow nutsedge (Cyperus esculentus); assay: Test D pre-/postemergence plant response
Method in brief: as §1

[5] = system: blackgrass (Alopecurus myosuroides); assay: Test D pre-/postemergence plant response
Method in brief: as §1

[6] = system: giant foxtail (Setaria faberii); assay: Test D pre-/postemergence plant response
Method in brief: as §1

[7] = system: waterhemp (common waterhemp, Amaranthus rudis); assay: Test D pre-/postemergence plant response
Method in brief: as §1

[8] = system: pigweed (Amaranthus retroflexus); assay: Test D pre-/postemergence plant response
Method in brief: as §1

[9] = system: large (Lg) crabgrass (Digitaria sanguinalis); assay: Test D pre-/postemergence plant response
Method in brief: as §1

[10] = system: barnyardgrass (Echinochloa crus-galli); assay: Test D pre-/postemergence plant response
Method in brief: as §1

[11] = system: wheat (Triticum aestivum); assay: Test B pre-/postemergence plant response; conditions: 0 to 100 scale, 0 no effect, 100 complete control
Method in brief: (§2)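 Steps: plant seeds in loam soil–sand mix; spray soil preemergence, and in parallel spray 2–10 cm one- to two-leaf plants postemergence; hold ~10 days in greenhouse; visually rate injury against untreated controls (0 = no effect, 100 = complete control).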

corn (Zea mays) = assay: Test B pre-/postemergence plant response; conditions: 0 to 100 scale, 0 no effect, 100 complete control
Method in brief: as §2

[12] = system: giant foxtail (Setaria faberii); assay: Test B pre-/postemergence plant response
Method in brief: as §2

[13] = system: pigweed (Amaranthus retroflexus); assay: Test B pre-/postemergence plant response
Method in brief: as §2

[14] = system: barnyardgrass (Echinochloa crus-galli); assay: Test B pre-/postemergence plant response
Method in brief: as §2

[15] = Postemergence, 16 g ai/ha, scale 0 to 100 (0 no effect, 100 complete control)
[16] = Postemergence, 31 g ai/ha, scale 0 to 100 (0 no effect, 100 complete control)
[17] = Postemergence, 62 g ai/ha, scale 0 to 100, 0 no effect, 100 complete control
[18] = Postemergence, 125 g ai/ha, scale 0 to 100, 0 no effect, 100 complete control
[19] = Preemergence, 16 g ai/ha, scale 0 to 100 (0 no effect, 100 complete control)
[20] = Preemergence, 31 g ai/ha, scale 0 to 100 (0 no effect, 100 complete control)
[21] = Preemergence, 62 g ai/ha, scale 0 to 100 (0 no effect, 100 complete control)
[22] = 31 g ai/ha, Postemergence, 0 to 100 scale, 0 no effect, 100 complete control
[23] = 31 g ai/ha, Preemergence, 0 to 100 scale where 0 is no effect and 100 is complete control
[24] = 125 g ai/ha, postemergence, 0 to 100 scale, 0 no effect, 100 complete control
[25] = Preemergence, 125 g ai/ha, 0 to 100 scale where 0 is no effect and 100 is complete control

## Fc1cccc(Oc2ncc(Br)cn2)c1-c1cc(C(F)F)on1 [Compound 118]
[1]; [15]
  Morningglory plant response rating: 85
[1]; [16]
  Morningglory plant response rating: 85
[1]; [17]
  Plant response rating, Morningglory: 85
[1]; [18]
  Plant response rating, Morningglory: 80
[1]; Preemergence, 125 g ai/ha
  Plant response rating (scale 0 to 100), Morningglory: 90
[1]; [19]
  Plant response rating, Morningglory: 30
[1]; [20]
  Plant response rating, Morningglory: 5
[1]; [21]
  Plant response rating, Morningglory: 85
[2]; [15]
  Ragweed plant response rating: 80
[2]; [16]
  Ragweed plant response rating: 45
[2]; [17]
  Plant response rating, Ragweed: 55
[2]; [18]
  Plant response rating, Ragweed: 85
[2]; Preemergence, 125 g ai/ha
  Plant response rating (scale 0 to 100), Ragweed: 85
[2]; [19]
  Plant response rating, Ragweed: 85
[2]; [20]
  Plant response rating, Ragweed: 20
[2]; [21]
  Plant response rating, Ragweed: 70
[3]; [15]
  Johnsongrass plant response rating: 5
[3]; [16]
  Johnsongrass plant response rating: 5
[3]; [17]
  Plant response rating, Johnsongrass: 10
[3]; [18]
  Plant response rating, Johnsongrass: 45
[3]; Preemergence, 125 g ai/ha
  Plant response rating (scale 0 to 100), Johnsongrass: 100
[3]; [19]
  Plant response rating, Johnsongrass: 10
[3]; [20]
  Plant response rating, Johnsongrass: 70
[3]; [21]
  Plant response rating, Johnsongrass: 85
Soybean (Glycine max); [15]
  Soybean plant response rating: 75
Soybean (Glycine max); [16]
  Soybean plant response rating: 60
Soybean (Glycine max); [17]
  Plant response rating, Soybean: 60
Soybean (Glycine max); [18]
  Plant response rating, Soybean: 90
Soybean (Glycine max); Preemergence, 125 g ai/ha
  Plant response rating (scale 0 to 100), Soybean: 95
Soybean (Glycine max); [19]
  Plant response rating, Soybean: 80
Soybean (Glycine max); [20]
  Plant response rating, Soybean: 75
Soybean (Glycine max); [21]
  Plant response rating, Soybean: 80
[4]; [15]
  Nutsedge, Yellow plant response rating: 5
[4]; [16]
  Nutsedge, Yellow plant response rating: 5
[4]; [17]
  Plant response rating, Nutsedge, Yellow: 10
[4]; [18]
  Plant response rating, Nutsedge, Yellow: 10
[4]; Preemergence, 125 g ai/ha
  Plant response rating (scale 0 to 100), Nutsedge, Yellow: 65
[4]; [19]
  Plant response rating, Nutsedge, Yellow: 0
[4]; [20]
  Plant response rating, Nutsedge, Yellow: 0
[4]; [21]
  Plant response rating, Nutsedge, Yellow: 15
[5]; [15]
  Blackgrass plant response rating: 5
[5]; [16]
  Blackgrass plant response rating: 10
[5]; [17]
  Plant response rating, Blackgrass: 15
[5]; [18]
  Plant response rating, Blackgrass: 35
[5]; Preemergence, 125 g ai/ha
  Plant response rating (scale 0 to 100), Blackgrass: 90
[5]; [19]
  Plant response rating, Blackgrass: 0
[5]; [20]
  Plant response rating, Blackgrass: 10
[5]; [21]
  Plant response rating, Blackgrass: 60
[6]; [15]
  Foxtail, Giant plant response rating: 5
[6]; [16]
  Foxtail, Giant plant response rating: 15
[6]; [17]
  Plant response rating, Foxtail, Giant: 10
[6]; [18]
  Plant response rating, Foxtail, Giant: 20
[6]; Preemergence, 125 g ai/ha
  Plant response rating (scale 0 to 100), Foxtail, Giant: 100
[6]; [19]
  Plant response rating, Foxtail, Giant: 98
[6]; [20]
  Plant response rating, Foxtail, Giant: 100
[6]; [21]
  Plant response rating, Foxtail, Giant: 100
[7]; [15]
  Waterhemp plant response rating: 85
[7]; [16]
  Waterhemp plant response rating: 90
[7]; [17]
  Plant response rating, Waterhemp: 95
[7]; [18]
  Plant response rating, Waterhemp: 98
[7]; Preemergence, 125 g ai/ha
  Plant response rating (scale 0 to 100), Waterhemp: 100
[7]; [19]
  Plant response rating, Waterhemp: 100
[7]; [20]
  Plant response rating, Waterhemp: 100
[7]; [21]
  Plant response rating, Waterhemp: 100
[8]; [15]
  Pigweed plant response rating: 80
[8]; [16]
  Pigweed plant response rating: 95
[8]; [17]
  Plant response rating, Pigweed: 95
[8]; [18]
  Plant response rating, Pigweed: 98
[8]; Preemergence, 125 g ai/ha
  Plant response rating (scale 0 to 100), Pigweed: 100
[8]; [19]
  Plant response rating, Pigweed: 100
[8]; [20]
  Plant response rating, Pigweed: 100
[8]; [21]
  Plant response rating, Pigweed: 100
[9]; [15]
  Crabgrass, Large plant response rating: 10
[9]; [16]
  Crabgrass, Large plant response rating: 10
[9]; [17]
  Plant response rating, Crabgrass, Large: 15
[9]; [18]
  Plant response rating, Crabgrass, Large: 20
[9]; Preemergence, 125 g ai/ha
  Plant response rating (scale 0 to 100), Crabgrass, Large: 100
[9]; [19]
  Plant response rating, Crabgrass, Large: 100
[9]; [20]
  Plant response rating, Crabgrass, Large: 100
[9]; [21]
  Plant response rating, Crabgrass, Large: 100
[10]; [15]
  Barnyardgrass plant response rating: 10
[10]; [16]
  Barnyardgrass plant response rating: 20
[10]; [17]
  Plant response rating, Barnyardgrass: 20
[10]; [18]
  Plant response rating, Barnyardgrass: 30
[10]; Preemergence, 62 g ai/ha
  Plant response rating (scale 0 to 100), Barnyardgrass: 100
[10]; Preemergence, 125 g ai/ha
  Plant response rating (scale 0 to 100), Barnyardgrass: 100
[10]; [19]
  Plant response rating, Barnyardgrass: 10
[10]; [20]
  Plant response rating, Barnyardgrass: 60
[11]; 31 g ai/ha, Postemergence
  Plant response rating, Wheat: 20
[11]; 125 g ai/ha, postemergence
  Plant response rating, Wheat: 60
Corn (Zea mays); 31 g ai/ha, Postemergence
  Plant response rating, Corn: 50
Corn (Zea mays); 125 g ai/ha, postemergence
  Plant response rating, Corn: 100
[12]; [22]
  Plant response rating, Foxtail, Giant: 90
[12]; [23]
  Plant response rating, Foxtail, Giant: 100
[12]; [24]
  Plant response rating, Foxtail, Giant: 100
[12]; [25]
  Plant response rating, Foxtail, Giant: 100
[13]; [22]
  Plant response rating, Pigweed: 100
[13]; [23]
  Plant response rating, Pigweed: 100
[13]; [24]
  Plant response rating, Pigweed: 100
[14]; [22]
  Plant response rating, Barnyardgrass: 70
[14]; [23]
  Plant response rating, Barnyardgrass: 70
[14]; [24]
  Plant response rating, Barnyardgrass: 100
[14]; [25]
  Plant response rating, Barnyardgrass: 100
